Measurements published in US9388425B2, “Tunable genetic switch for regulating gene expression” (TRUSTEES OF BOSTON UNIVERSITY, priority 2006, dated 2016).

System: Rosa26 cells
Experiment: Apoptosis and cell death, annexin V and propidium iodide staining, flow cytometry, Rosa26 cells
Type: cell-based, mouse
Conditions: indicated levels of IPTG (0, 250 pM, 2.5 μM, 1 mM)
Experimental: Rosa26fibroblasts were obtained from embryonic day 14.5 Rosa26-R mice. The cells were maintained in embryonic fibroblast medium (high-glucose DMEM, 10% FBS, penicillin/streptomycin, L-glutamine, and sodium pyruvate) and grown in a humidified 5% CO2, 37CC incubator. These cells were transfected with 0.8 μg of LTRi-cre and LTRi-bax using Lipofectamine 2000 reagent (Invitrogen). The LTRi-cre cells were analyzed by β-galactosidase staining 48 hr after transfection. The LTRi-bax cells were stained and analyzed by flow cytometry 48 hr after transfection. […]
Cells were grown in 12-well plates, and 24 hr after plating, they were transfected with 0.8 μg of LTRi-bax using Lipofectamine 2000 reagent (Invitrogen) per the manufacturer's protocol and exposed to the indicated levels of IPTG. […] Annexin V has a high affinity for phosphatidylserine; therefore, annexin V conjugated with Alexa Fluor 488 can identify apoptotic cells by binding to phosphatidylserine and can be analyzed by flow cytometry measuring the fluorescence emission at 530 nm (FL1). […] It is impermeable to live and apoptotic cells but stains dead cells with red fluorescence. Dead cells appear red and can be analyzed by flow cytometry measuring the red florescence emission >575 nm (FL3). […]

CC(C)S[C@@H]1O[C@H](CO)[C@H](O)[C@H](O)[C@H]1O [IPTG, isopropyl-β-thiogalactopyranoside]
apoptosis or cell death of non-transfected cells exposed to inducer: no change in apoptosis or cell death
